Laboratory results taken from ChEMBL document CHEMBL6087454, “Identification of Novel Organo-Se BTSA-Based Derivatives as Potent, Reversible, and Selective PPARγ Covalent Modulators for Antidiabetic Drug Discovery” (J Med Chem, 2025).
The source made the active and inactive calls. No cut-off for these calls is given here.

Tests used:
[1] = Toxicity in male db/db mouse model assessed as effect on liver weight at 2.5 to 5 mg/kg, ip administered for 4 weeks; format: organism-based; settings: in vivo, 672 h, dose 2.5-5 mg/kg
Mus musculus [2] = test: Antidiabetic activity in male db/db mouse model assessed as downregulation of LPL gene expression in white adipose tissue at 2.5 to 10 mg/kg/day, ip administered for 4 weeks by RT-qPCR analysis; format: functional, organism-based; settings: dose 2.5-10 mg/kg/day
Mus musculus [3] = test: Antidiabetic activity in male db/db mouse model assessed as downregulation of SOCS3 gene expression in liver at 2.5 to 10 mg/kg/day, ip administered for 4 weeks by RT-qPCR analysis; format: functional, organism-based; settings: dose 2.5-10 mg/kg/day
Mus musculus [4] = test: Antidiabetic activity in male db/db mouse model assessed as reduction in random blood glucose level administered intraperitoneally for 4 weeks; format: functional, organism-based; settings: dose 2.5-10 mg/kg/day, route ip
Mus musculus [5] = test: Antidiabetic activity in male db/db mouse model assessed as downregulation of PTP1B gene expression in white adipose tissue at 2.5 to 10 mg/kg/day, ip administered for 4 weeks by RT-qPCR analysis; format: functional, organism-based; settings: dose 2.5-10 mg/kg/day
Mus musculus [6] = test: Downregulation of PPAR-gamma protein expression in male db/db mouse liver at 2.5 to 10 mg/kg/day, ip administered for 4 weeks by Western blotting analysis; format: functional, organism-based; settings: dose 2.5-10 mg/kg/day
Mus musculus [7] = test: Antidiabetic activity in male db/db mouse model assessed as downregulation of FASN gene expression in white adipose tissue at 2.5 to 10 mg/kg/day, ip administered for 4 weeks by RT-qPCR analysis; format: functional, organism-based; settings: dose 2.5-10 mg/kg/day
[8] = Toxicity in male db/db mouse model assessed as effect on kidney morphology at 2.5 to 10 mg/kg/day, ip administered for 4 weeks; format: organism-based; settings: in vivo, 672 h, dose 2.5-10 mg/kg/day
[9] = Toxicity in male db/db mouse model assessed as effect on kidney weight at 2.5 to 10 mg/kg/day, ip administered for 4 weeks; format: organism-based; settings: in vivo, 672 h, dose 2.5-10 mg/kg/day
Mus musculus [10] = test: Antidiabetic activity in male db/db mouse model assessed as downregulation of PPARgamma gene expression in white adipose tissue at 2.5 to 10 mg/kg/day, ip administered for 4 weeks by RT-qPCR analysis; format: functional, organism-based; settings: dose 2.5-10 mg/kg/day
Mus musculus [11] = test: In vivo inhibition of Erk/Cdk5-mediated PPAR-gamma phosphorylation at Ser273 residue in male db/db mouse model assessed as decrease in phosphorylated-ERK expression in white adipose tissue at 2.5 to 10 mg/kg/day, ip administered for 4 weeks by Western blotting analysis; format: functional, organism-based; settings: dose 2.5-10 mg/kg/day
3T3-L1 [12] = test: Inhibition of adipogenesis in mouse 3T3-L1 cells assessed as downregulation of LPL gene expression at 1 uM measured after 48 hrs by RT-qPCR analysis; format: functional, cell-based
Mus musculus [13] = test: Antidiabetic activity in male db/db mouse model assessed as improvement in insulin tolerance at 2.5 to 10 mg/kg/day, ip preadministered for 4 weeks followed by glucose administration after 4 to 6 hrs of fasting and measured after 120 mins by intraperitoneal insulin tolerance test; format: functional, organism-based; settings: dose 2.5-10 mg/kg/day
Mus musculus [14] = test: Antidiabetic activity in male db/db mouse model assessed as downregulation of PTP1B gene expression in liver at 2.5 to 10 mg/kg/day, ip administered for 4 weeks by RT-qPCR analysis; format: functional, organism-based; settings: dose 2.5-10 mg/kg/day
Mus musculus [15] = test: Antidiabetic activity in male db/db mouse model assessed as downregulation of LPL gene expression in liver at 2.5 to 10 mg/kg/day, ip administered for 4 weeks by RT-qPCR analysis; format: functional, organism-based; settings: dose 2.5-10 mg/kg/day
Mus musculus [16] = test: Effect on cdk5 protein expression in male db/db mouse white adipose tissue at 2.5 to 10 mg/kg/day, ip administered for 4 weeks by Western blotting analysis; format: functional, organism-based; settings: dose 2.5-10 mg/kg/day
Mus musculus [17] = test: Antidiabetic activity in male db/db mouse model assessed as upregulation of adiponectin gene expression in white adipose tissue at 2.5 to 10 mg/kg/day, ip administered for 4 weeks by RT-qPCR analysis; format: functional, organism-based; settings: dose 2.5-10 mg/kg/day
[18] = Toxicity in male db/db mouse model assessed as effect on spleen morphology at 2.5 to 10 mg/kg/day, ip administered for 4 weeks; format: organism-based; settings: in vivo, 672 h, dose 2.5-10 mg/kg/day
[19] = Toxicity in male db/db mouse model assessed as decrease in liver weight at 10 mg/kg, ip administered for 4 weeks; format: organism-based; settings: in vivo, 672 h
Mus musculus [20] = test: Effect on pRb protein expression in male db/db mouse white adipose tissue at 2.5 to 10 mg/kg/day, ip administered for 4 weeks by Western blotting analysis; format: functional, organism-based; settings: dose 2.5-10 mg/kg/day
3T3-L1 [21] = test: Inhibition of adipogenesis in mouse 3T3-L1 cells assessed as downregulation of FASN gene expression at 1 uM measured after 48 hrs by RT-qPCR analysis; format: functional, cell-based
[22] = molecular target: T1, Peroxisome proliferator-activated receptor gamma (Homo sapiens) (UniProt P37231); test: Covalent binding affinity to recombinant PPAR-gamma ligand binding domain (unknown origin) at Cys285 residue at 0.4 uM incubated for 30 mins by rhodamine-maleimide staining based SDS-PAGE analysis; settings: filed as partial agonist
T1 sequence (whole entry): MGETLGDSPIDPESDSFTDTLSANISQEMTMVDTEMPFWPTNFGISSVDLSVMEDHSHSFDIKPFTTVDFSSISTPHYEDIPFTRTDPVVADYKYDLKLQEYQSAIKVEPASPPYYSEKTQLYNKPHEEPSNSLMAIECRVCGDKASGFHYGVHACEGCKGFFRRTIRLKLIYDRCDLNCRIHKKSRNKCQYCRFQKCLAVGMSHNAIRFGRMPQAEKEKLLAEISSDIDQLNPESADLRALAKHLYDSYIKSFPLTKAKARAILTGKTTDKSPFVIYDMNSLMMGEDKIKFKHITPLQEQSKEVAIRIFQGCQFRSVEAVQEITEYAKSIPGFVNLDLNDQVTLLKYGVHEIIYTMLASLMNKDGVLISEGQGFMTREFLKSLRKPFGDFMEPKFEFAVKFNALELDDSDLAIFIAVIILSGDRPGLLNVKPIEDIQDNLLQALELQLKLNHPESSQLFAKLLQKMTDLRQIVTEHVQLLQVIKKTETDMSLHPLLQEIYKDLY

Mus musculus [23] = test: Antidiabetic activity in male db/db mouse model assessed as increase in Glut4 protein abundance in liver at 2.5 to 10 mg/kg/day, ip administered for 4 weeks by Western blotting analysis; format: functional, organism-based; settings: dose 2.5-10 mg/kg/day
[24] = Toxicity in male db/db mouse model assessed as effect on liver morphology at 2.5 to 5 mg/kg, ip administered for 4 weeks; format: organism-based; settings: in vivo, 672 h, dose 2.5-5 mg/kg
Mus musculus [25] = test: Antidiabetic activity in male db/db mouse model assessed as downregulation of C/EBPalpha gene expression in white adipose tissue at 2.5 to 10 mg/kg/day, ip administered for 4 weeks by RT-qPCR analysis; format: functional, organism-based; settings: dose 2.5-10 mg/kg/day
[26] = Toxicity in male db/db mouse model assessed as effect on heart weight at 2.5 to 10 mg/kg/day, ip administered for 4 weeks; format: organism-based; settings: in vivo, 672 h, dose 2.5-10 mg/kg/day
Mus musculus [27] = test: Antidiabetic activity in male db/db mouse model assessed as reduction in fasting blood glucose level administered intraperitoneally for 4 weeks; format: functional, organism-based; settings: dose 2.5-10 mg/kg/day, route ip
Mus musculus [28] = test: In vivo inhibition of Erk/Cdk5-mediated PPAR-gamma phosphorylation at Ser273 residue in male db/db mouse model assessed as decrease in phosphorylated-ERK expression in liver at 2.5 to 10 mg/kg/day, ip administered for 4 weeks by Western blotting analysis; format: functional, organism-based; settings: dose 2.5-10 mg/kg/day

Cc1ccc(S(=O)(=O)Oc2ccc(S3(=O)=N[Se]c4cc(OS(=O)(=O)c5ccc(C)cc5)ccc43)cc2)cc1 (stereo not drawn)
Activity [1]: Non-toxic
Activity (Mus musculus [2]): Active
Activity (Mus musculus [3]): Active
Activity (Mus musculus [4]): Dose-dependent-effect
Activity (Mus musculus [5]): Active
Activity (Mus musculus [6]): inactive
Activity (Mus musculus [7]): Active
Activity [8]: Non-toxic
Activity [9]: Non-toxic
Activity (Mus musculus [10]): Active
inhibition (Mus musculus [11]): Active
inhibition (3T3-L1 [12]): Active
Activity (Mus musculus [13]): Active
Activity (Mus musculus [14]): Active
Activity (Mus musculus [15]): Active
Activity (Mus musculus [16]): inactive
Activity (Mus musculus [17]): Active
Activity [18]: Non-toxic
Activity [19]: Toxic
Activity (Mus musculus [20]): inactive
inhibition (3T3-L1 [21]): Active
Activity [22]: Active
Activity (Mus musculus [23]): Active
Activity [24]: Non-toxic
Activity (Mus musculus [25]): Active
Activity [26]: Non-toxic
Activity (Mus musculus [27]): Dose-dependent-effect
inhibition (Mus musculus [28]): Active
